From US7411002B2, “Polycationic sulfonamides and use thereof” (priority 2006, dated 2008)
Read-outs that look alike come from different tables or passages of the source.

What was measured:
[1] = Rapid-throughput BODIPY-TR cadaverine (BC) fluorescence displacement assay for binding affinity to LPS; details: half-maximal effective displacement of BODIPY-TR cadaverine probe from LPS; 50 mM Tris buffer, pH 7.4; read-out: Binding affinity (BC displacement) ED50 value
Experimental: Rapid-throughput Fluorescence Displacement Assay for quantifying binding affinities to LPS. […] Polymyxin B (PMB), a peptide antibiotic known to bind and neutralize LPS^65 serves as the positive control and reference compound for every plate, enabling the quantitative assessment of repeatability and reproducibility (CV and Z′ factors) for the assay. Automated liquid handling is performed on a Precision 2000 automated microplate pipetting system, programmed using the Precision Power software, Bio-Tek Instruments Inc., VT, USA. Results are reported as half-maximal effective displacement of probe (ED50) (Tables A-F). In all experiments, Polymyxin B (PMB), a decapeptide antibiotic, known to bind and neutralize LPS,^66-69 is used as a reference compound.

[2] = system: LPS-induced NF-κB induction in human embryonic kidney 293 cells cotransfected with TLR4, CD14 and MD2; experiment: Inhibition of LPS induction of NF-κB (seAP reporter) in HEK 293 cells cotransfected with TLR4, CD14 and MD2; assay type: cell-based; details: for IC50: inhibition of LPS-induced NF-κB induction, HEK 293 TLR4/CD14/MD2 reporter cells, read-out: NFκβ inhibition IC50 value; for activity in words (LPS binding / cell-based cytokine inhibition, comment on Table F): qualitative comparison with spermine-sulfonamide counterparts
Excerpt: Assessment of Inhibition of Cytokine Induction (NF-κB): The inhibition of induction of NF-κB (a key transcripitional activator of the innate immune system, leading to uncontrolled cytokine release^72,73 which ultimately leads to multiple organ failure and the shock syndrome) is quantified using human embryonic kidney 293 cells cotransfected with TLR4 (LPS receptor), CD14 and MD2 (co-receptors), available from InvivoGen, Inc. (HEK-Bluetm, San Diego, Calif.), as per protocols provided by the vendor. Stable expression of secreted alkaline phosphatase (seAP) under control of NF-κB/AP-1 promoters is inducible by LPS, and extracellulare seAP in the supernatant is proportional to NF-κB induction. seAP is assayed spectrophotometrically using an alkaline phosphatase-specific chromogen at 620 nm using a rapid-throughput, automated protocol employing a Bio-Tek P2000 liquid handler. Results showing the ability of polycationic sulfonamide compounds to inhibit the induction of NF-κB by LPS are shown in Tables A-F.

[3] = system: LPS-induced nitric oxide production in murine macrophage J774A.1 cells; experiment: NO inhibition (Griess nitrite assay) in LPS-stimulated murine macrophage J774A.1 cells; assay type: cell-based; details: Mus musculus, J774.A1, 10 ng/ml LPS, 16 h
Experimental: Assessment of neutralization of LPS toxicity: NO inhibition activity. Nitric oxide production is measured as total nitrite in murine macrophage J774A.1 cells using the Griess assay^70 as described previously.^71 J774A.1 cells are plated at ˜10^5/ml in a volume of 40 μl/well, in 384-well, flat-bottomed, cell culture treated microtiter plates and subsequently stimulated with 10 ng/ml lipopolysaccharide (LPS). Concurrent to LPS stimulation, serially diluted concentrations of test compounds are added to the cell medium and left to incubate for 16 h. Polymyxin B is used as reference compound in each plate. Positive-(LPS stimulation only) and negative-controls (J774A.1 medium only) are included in each experiment. Nitrite concentrations are measured by adding 40 μl of supernatant to equal volumes of Griess reagents (50 μl/well; 0.1% NED solution in ddH2O and 1% sulfanilamide, 5% phosphoric acid solution in ddH2O) and incubating for 15 minutes at room temperature in the dark. Absorbance at 535 nm is measured using a Molecular Devices Spectramax M2 multifunction plate reader (Sunnyvale, Calif.). Nitrite concentrations are interpolated from standard curves obtained from serially diluted sodium nitrite standards. IC50 values are determined for compounds that neutralize LPS inhibit NO production in a dose-dependent manner (Tables A-F). Results in this assay parallel those in the binding assay.

Compound | EC50 [1] [µM] | IC50 ([2]; Homo sapiens, HEK293) [µM] | IC50 [3] [µM] | activity in words (LPS binding / cell-based cytokine inhibition, comment on Table F) [2] | IC50 [2] [µM]
CCCCCCCCS(=O)(=O)NCCCNCCCCNCCCN [MQTS 2351, N^1-Octanylsulfonyl-1,14-diamino-5,10-diazabutadecane] | 6.64 | 33.3 | 1.44 | – | –
CCCCCCCCCCCCS(=O)(=O)NCCCNCCCCNCCCN [MQTS 2357, N^1-Dodecanylsulfonyl-1,14-diamino-5,10-diazabutadecane] | 2.69 | 0.41 | 1.34 | – | –
CCCCCCCCCCCCCCCCS(=O)(=O)N(CCCN)CCCCNCCCN [MQTS 2363] | 45.6 | 2.68 | 13.7 | greatly diminished activity | –
CCCCCCCCCCCCCCCCS(=O)(=O)NCCCCCCCCCCCCN [MQTS 2369] | – | 200 | – | much lower activities | –
CCCCCCCCCCCCCCCCS(=O)(=O)NCCCOCCCCOCCCN [MQTS 2370] | > 5000 | 22.4 | 30.9 | much lower activities | –
CCCCCCCCCCS(=O)(=O)NCCCNCCCCNCCCN [MQTS 2377, N^1-Decanylsulfonyl-1,14-diamino-5,10-diazabutadecane] | 3.7 | 0.5 | 4.42 | – | –
CCCCCCCCCCCCCCCCCCS(=O)(=O)NCCCNCCCCNCCCN [MQTS 2378] | 6.01 | 0.36 | 0.48 | – | –
CCCCCCCCS(=O)(=O)NCCCNCCCNCCCCNCCCN [MQTS 2379, N^1-Octanylsulfonyl-1,18-diamino-5,9,14-triazaoctadecane] | 2.84 | 0.816 | 6.47 | – | –
CCCCCCCCCCCCCCCCCCS(=O)(=O)NCCCNCCCNCCCCNCCCN [MQTS 2380, N^1-Octadecanylsulfonyl-1,18-diamino-5,9,14-triazaoctadecane] | 4.45 | 1.06 | 0.23 | – | –
CCCCCCCCCCS(=O)(=O)NCCCNCCCNCCCCNCCCN [MQTS 2381] | 2.89 | 0.278 | 1.09 | – | –
CCCCCCCCCCCCS(=O)(=O)NCCCNCCCNCCCCNCCCN [MQTS 2382, N^1-Dodecanylsulfonyl-1,18-diamino-5,9,14-triazaoctadecane] | 2.92 | 0.19 | 0.39 | – | –
CCCCCCCCCCCCS(=O)(=O)NCCCN(CCCNCCCNCCCCNCCCN)CCCNS(=O)(=O)CCCCCCCCCCCC [MQTS 2390, N^1-Bis[N-dodecanylsulfonyl-3-aminopropyl]-1,18-diamino-5,9,14-triazaoctadecane] | 6.82 | 16.4 | 0.51 | – | –
CCCCCCCCCCCCCCCCS(=O)(=O)NCCCN(CCCNCCCNCCCCNCCCN)CCCNS(=O)(=O)CCCCCCCCCCCCCCCC [MQTS 2391] | 9.31 | 2.68 | 5.2 | – | –
CCCCCCCCCCCCCCCCCCS(=O)(=O)NCCCN(CCCNCCCCNCCCN)CCCNS(=O)(=O)CCCCCCCCCCCCCCCCCC [MQTS 2394, N^1-Bis[N-octadecanylsulfonyl-3-aminopropyl]-1,14-diamino-5,10-diazabutadecane] | 28.3 | 64 | 2330 | – | –
CCCCCCCCCCCCCCCCS(=O)(=O)NCCCN(CCCNCCCCNCCCN)CCCNS(=O)(=O)CCCCCCCCCCCCCCCC [MQTS 2396] | 26.4 | 4.85 | 15.1 | – | –
CCCCCCCCCCCCCCCCCCS(=O)(=O)NCCCNCCCCNCCCCNCCCCNCCCNS(=O)(=O)CCCCCCCCCCCCCCCCCC [MQTS 2401, N^1,N^14-Bis[N-octadecanylsulfonyl-3-aminopropyl]-1,14-diamino-5,10-diazabutadecane] | > 5000 | – | – | – | 6.49

Compound | EC50 [1] [µM] | IC50 ([2]; Homo sapiens, HEK293) [µM] | IC50 [3] [µM] | activity in words (LPS binding / cell-based cytokine inhibition, comment on Table F) [2] | IC50 [2] [µM]
CCCCCCCCS(=O)(=O)NCCCN(CCCNCCCCNCCCN)CCCNS(=O)(=O)CCCCCCCC [MQTS 2406, N^1-Bis[N-octanylsulfonyl-3-aminopropyl]-1,14-diamino-5,10-diazabutadecane] | 2.17 | 0.669 | – | – | –
CCCCCCCCCCCCCCCCS(=O)(=O)NCCCN(CCCN)CCCN [MQTS 2409] | 12.3 | 9.19 | – | – | –
CCCCCCCCCCCCCCCCS(=O)(=O)NCCN(CCN)CCN [MQTS 2410] | 3.54 | 0.379 | – | – | –
CCCCCCCCS(=O)(=O)NCCNCCCNCCN [MQTS 2411] | 10.6 | 13.8 | – | – | –
CCCCCCCCCCCCS(=O)(=O)NCCNCCCNCCN [MQTS 2412] | 4.77 | 0.686 | – | – | –
CCCCCCCCS(=O)(=O)NCCCNCCCNCCCN [MQTS 2413] | 6.7 | 5.56 | – | – | –
CCCCCCCCCCCCS(=O)(=O)NCCCNCCCNCCCN [MQTS 2414] | 4.27 | 0.363 | – | – | –
CCCCCCCCS(=O)(=O)NCCCNC/C=C/CNCCCN [MQTS 2415] | 12.5 | 12.7 | – | – | –
CCCCCCCCCCCCS(=O)(=O)NCCCNC/C=C/CNCCCN [MQTS 2416] | 3.83 | 0.522 | – | active | –
CCCCCCCCCCS(=O)(=O)NCCCN(CCCNCCCNCCCCNCCCN)CCCNS(=O)(=O)CCCCCCCCCC [MQTS 2417, N^1-Bis[N-decanylsulfonyl-3-aminopropyl]-1,18-diamino-5,9,14-triazaoctadecane] | 1.16 | 2.2 | 0.43 | – | –
CCCCCCCC(=O)NCCCN(CCCNCCCNCCCCNCCCN)CCCNC(=O)CCCCCCC [MQTS 2418] | 1 | 3.17 | 2.48 | greatly diminished activity | –
N^1,N^14-Bis[N-decanylsulfonyl-3-aminopropyl]-1,14-diamino-5,10-diazabutadecane [MQTS 2398] | 13.5 | – | – | – | 4.2
N^1,N^14-Bis[N-dodecanylsulfonyl-3-aminopropyl]-1,14-diamino-5,10-diazabutadecane [MQTS 2399] | 55.2 | – | – | – | 10.3
N^1,N^14-Bis[N-hexadecanylsulfonyl-3-aminopropyl]-1,14-diamino-5,10-diazabutadecane [MQTS 2400] | 133 | – | – | – | 11.7
N^1,N^14-Bis[N-octanylsulfonyl-3-aminopropyl]-1,14-diamino-5,10-diazabutadecane [MQTS 2397] | 2.6 | – | – | – | 0.607
